Results reported in patent US20220193072A1, “METHODS OF TREATING BREAST CANCER WITH TETRAHYDRONAPHTHALENE DERIVATIVES AS ESTROGEN RECEPTOR DEGRADER” (Arvinas Operations, Inc., priority 2020, published 2022).

Columns and labels:
rat uterine ER = molecular target: T1, rat uterine ER (Rattus norvegicus, UniProt P06211); assay: Immature rat uterotrophic model; format: in vivo
T1 construct: from tissue; host or cells: uterus of immature rats
T1 sequence (P06211 1-600): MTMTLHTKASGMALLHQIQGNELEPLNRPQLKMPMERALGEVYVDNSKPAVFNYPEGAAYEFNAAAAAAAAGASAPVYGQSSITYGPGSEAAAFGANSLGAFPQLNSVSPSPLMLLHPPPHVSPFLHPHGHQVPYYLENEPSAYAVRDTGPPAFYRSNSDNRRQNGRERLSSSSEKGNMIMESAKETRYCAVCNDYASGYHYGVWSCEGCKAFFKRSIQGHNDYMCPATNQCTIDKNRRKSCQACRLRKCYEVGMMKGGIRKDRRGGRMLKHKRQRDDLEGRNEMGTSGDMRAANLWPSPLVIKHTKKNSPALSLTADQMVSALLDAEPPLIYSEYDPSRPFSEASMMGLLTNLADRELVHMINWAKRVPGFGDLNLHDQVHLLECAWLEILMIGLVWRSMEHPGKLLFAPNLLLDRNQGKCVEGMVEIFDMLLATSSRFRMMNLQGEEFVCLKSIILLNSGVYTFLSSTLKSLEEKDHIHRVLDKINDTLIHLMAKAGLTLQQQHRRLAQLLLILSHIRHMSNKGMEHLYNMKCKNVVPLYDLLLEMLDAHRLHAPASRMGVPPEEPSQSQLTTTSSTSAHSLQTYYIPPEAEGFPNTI

ERα = molecular target: T2, ERα (Homo sapiens, UniProt P03372); assay: ERα levels in tamoxifen-resistant MCF7 xenografts (immunoblot); format: in vivo, Nu/Nu mice; settings: tamoxifen-resistant MCF7, 30 mg/kg, study termination
T2 construct: robustly degrades ER in ER-positive breast cancer cell lines; endogenous in cells; host or cells: MCF7, T47D (cell culture); MCF7 and tamoxifen-resistant MCF7 xenograft tumours in mice
T2 sequence (P03372 1-595): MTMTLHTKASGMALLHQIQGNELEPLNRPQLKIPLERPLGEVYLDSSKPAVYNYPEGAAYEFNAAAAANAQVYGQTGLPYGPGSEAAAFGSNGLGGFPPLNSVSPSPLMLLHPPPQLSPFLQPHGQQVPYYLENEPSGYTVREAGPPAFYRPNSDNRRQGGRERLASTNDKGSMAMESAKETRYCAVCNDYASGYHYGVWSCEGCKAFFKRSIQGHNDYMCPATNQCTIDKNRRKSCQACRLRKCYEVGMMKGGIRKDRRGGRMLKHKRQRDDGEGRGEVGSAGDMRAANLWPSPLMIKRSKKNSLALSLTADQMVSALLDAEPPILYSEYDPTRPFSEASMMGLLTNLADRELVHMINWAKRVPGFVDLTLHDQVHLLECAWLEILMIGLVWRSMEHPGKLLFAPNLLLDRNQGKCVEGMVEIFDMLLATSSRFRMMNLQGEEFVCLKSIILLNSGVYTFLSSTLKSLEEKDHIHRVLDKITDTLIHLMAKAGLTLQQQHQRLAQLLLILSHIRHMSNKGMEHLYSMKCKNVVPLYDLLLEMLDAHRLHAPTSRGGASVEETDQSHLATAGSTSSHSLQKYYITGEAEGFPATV
Protocol: At study termination, the tumors were removed from the mice, and ERα levels were determined by immunoblotting the tumor homogenates. […] ERα levels from the various compound arms were compared to vehicle-treated animals by analyzing the tumor lysates on separate immunoblots (graphs in FIG. 10, FIG. 11, and FIG. 12 depict data from individual immunoblots) and the average ERα levels with standard deviation is shown.
Sampling: Tumors were measured twice weekly. Terminal sacrifice was ˜18 hr after last dose; tumors were harvested, divided, and flash frozen. ERα levels were determined by immunoblotting (see Appendix 1 for details).
Flash frozen tumors were removed from −80° C. storage and placed on dry ice. RIPA lysis buffer and Halt protease inhibitors were used at 400 μl per tumor sample. A steel ball (5 mm) was placed in each sample for tissue disruption. Samples were lysed with TissueLyzer at 24 Hz for 4 minutes. The homogenization was stopped half way through the process and the block flipped over for the duration of the process. […] Lysates were then measured for total protein concentration by BCA (per manufacturer's protocol). […]
Protein was transferred from gels to nitrocellulose with Bio-Rad Turbo on default setting. […] The blots were cut so that beta-actin and ERα can be detected from the same lane/sample. […]

O=C1CC[C@H](N2Cc3cc(N4CCN(CC5CCN(c6ccc([C@@H]7c8ccc(O)cc8CC[C@@H]7c7ccccc7)cc6)CC5)CC4)ccc3C2=O)C(=O)N1 [Compound (I-c), (3S)-3-[5-[4-[[1-[4-[(1R,2S)-6-hydroxy-2-phenyl-tetralin-1-yl]phenyl]-4-piperidyl]methyl]piperazin-1-yl]-1-oxo-isoindolin-2-yl]piperidine-2,6-dione]
degradation of rat uterine ER (rat uterine ER): degrades
agonist activity (uterine weight) (rat uterine ER; FIG. 17: 30 mg/kg once a day oral): no agonist activity
reduction of tumor ERα levels vs vehicle (ERα): 73%
